Structures can show the parent of a compound that is named as a salt.

Data set [1] concerns the target T1, DiHydroFolate Reductase (DHFR) (Rattus norvegicus, UniProt Q920D2).
T1 construct: from tissue; host or cells: rat liver homogenate supernatant
T1 sequence (Q920D2 1-187): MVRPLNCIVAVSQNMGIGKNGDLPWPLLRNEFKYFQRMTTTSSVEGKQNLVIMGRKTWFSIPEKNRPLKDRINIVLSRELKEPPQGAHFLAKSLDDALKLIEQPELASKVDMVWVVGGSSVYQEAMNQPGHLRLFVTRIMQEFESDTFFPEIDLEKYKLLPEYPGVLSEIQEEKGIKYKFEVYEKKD
Briefly: Inhibition of binding of [3H]methotrexate to rat liver homogenate supernatant. As to conditions: for inhibition at 125 µM: read-out: [3H]mtx binding (% inhibition @ 125 μM). The protocol:
All steps were carried out at 4° (or on ice). Freshly dissected rat liver was dissected into 0.25M ice-cold Sucrose and subsequently homogenised (U-turrax) in 50 mM pH 6.0 phosphate buffer (10 ml/g tissue) containing 15 mM Dithiothreitol. The resulting homogenate was centrifuged@47,500×g for 20 min and supernatant (filtered through cotton wool to remove fatty lumps) stored @ −80° before use (Rothenberg et al).
Inhibition of the binding of [^3H]methotrexate to rat liver homogenate supernatant fractions were carried out essentially as described by Arons et al, 1975.
(§1) Data are presented as mean±sem of number of experiments indicated in brackets.

Data set [2] relates to sodium channel. Briefly: [14C]guanidine flux: veratrine-evoked uptake of [14C]guanidine into rat forebrain synaptosomes (primary sodium channel assay). It is filed as biochemical. As to conditions: 30° for 2½ min. The protocol: The screening strategy is designed to select compounds with appropriate sodium channel blocking activity and low side effect liability. To this end all compounds are processed through the primary sodium channel assay (veratrine-evoked uptake of [^14C]guanidine into rat forebrain synaptosomes) and IC50 values computed from generated concentration-effect curves.
Experiments were performed using forebrain (whole brain less cerebellum/medulla) from Male Wistar rats weighing 175-250 g. All efforts were made to reduce the number of animals used and all experiments were carried out in accordance with the UK Animals (Scientific Procedures) Act, 1986 and the European Community Council Directive of 24 Nov. 1986 (86/609/EEC). Following killing of animals by stunning and decapitation, the forebrain (whole brain less cerebellum/medulla) was rapidly dissected and transferred to a weighed tube containing ice-cold 0.25M sucrose.
Synaptosomes (heavy and light mitochondrial fraction containing synaptosomes) were prepared by transferring the forebrain (of known wet weight) to a glass Potter vessel to which 9 volumes ice-cold 0.25M sucrose had been added and homogenising, using a teflon pestle, by 8 ‘up and down strokes’ of a Braun Potter S motor driven homogeniser set to 900 rpm. The resulting homogenate was centrifuged at 1036×g at 4° for 10 min and the supernatant collected. The remaining pellet was resuspended, as above, in fresh ice-cold 0.25M sucrose and the centrifugation step repeated. The supernatant fractions were pooled and centrifuged at 40,000×g (average) at 4° for 15 min and the resulting pellet resuspended in the appropriate assay buffer at a concentration of 20-25 mg wet weight per ml appropriate assay buffer.
Both assays were carried out using 14 ml polypropylene test tubes to which a range of concentrations of the compounds under test were added.
The [^14C] guanidinine flux assay was measured using the method of Pauwels P J et al (1986) but carried out@30° for 2½ min.
as §1

For `Nc1nnc(C2(c3ccc(Cl)cc3)CCCC2)c(N)n1` [CEN-148, 3,5-Diamino-6-[1-(4-chlorophenyl)-1-cyclopenty]-1,2,4-triazine], the melting point lay within 184 to 186 °C. Also, in data set [1], the inhibition at 125 µM was 38%. In data set [2], this compound displayed an IC50 of 20.4 µM.
As for `Nc1nnc(-c2cc(Br)c(Br)s2)c(N)n1` [CEN-122, 3,5-Diamino-6-[2-(4,5-dibromothienyl)]-1,2,4-triazine], the melting point was 318 to 320 °C. Besides, in data set [1], the inhibition at 125 µM was determined as 86%. Also, the IC50 in data set [2] was greater than 1000 µM.
As for `COc1cc(OC)cc(-c2nnc(N)nc2N)c1` [CEN-192, 3,5-Diamino-6-(3,5-dimethoxyphenyl)-1,2,4-triazine], the melting point was 225 to 228 °C. In data set [1] (read-out: [3H]mtx binding % inhibition (* 99 μM, *** uses fresh batch of supernatant), 99 μM, fresh batch of supernatant), the inhibition at 99 µM was determined as 91%. In data set [2], the IC50 was greater than 2000 µM.
`CC(c1ccccc1)(c1ccccc1)c1nnc(N)nc1N` [CEN-147, 3,5-Diamino-6-(1,1-diphenylethyl)-1,2,4-triazine] gave a melting point of 197 to 199 °C. Also, the inhibition at 125 µM in data set [1] worked out at 4%. In data set [2], this compound showed an IC50 of 60.3 µM.
`Nc1nnc(-c2ccc(-c3ccccc3)o2)c(N)n1` [CEN-107, 3,5-Diamino-6-[2-(5-phenylfuryl)]-1,2,4-triazine]: the melting point is 247 to 249 °C. Further, in data set [1], the inhibition at 125 µM was 48%. This compound also came in with an IC50 in data set [2] of 1170 µM.
In the case of `Nc1nnc(-c2ccc3cc(Br)ccc3c2)c(N)n1` [CEN-96], the melting point lay in the range of 260 to 262 °C. In addition, the inhibition at 125 µM in data set [1] was 105%. For the same compound, half-maximal inhibition in data set [2] (IC50) required 110 µM.
Compound `COc1ccc2cc(OC)c(-c3nnc(N)nc3N)cc2c1` [CEN-143] came in with a melting point of 274 to 276 °C. In addition, in data set [1], the inhibition at 125 µM stood at 27%. The same compound returned an IC50 in data set [2] greater than 2000 µM.
Compound `COc1cc(-c2nnc(N)nc2N)c(OC)c2ccccc12` [CEN-151] yielded a melting point of 142 to 144 °C. Also, the inhibition at 125 µM in data set [1] amounted to 76%. The compound also yielded a half-inhibitory concentration (IC50) in data set [2] of 67.6 µM.
On the same counts, the results for `Nc1nnc(C2(c3ccc(Cl)cc3)CCCCC2)c(N)n1` [CEN-145, 3,5-Diamino-6-[1-(4-chlorophenyl)-1-cyclohexyl]-1,2,4-triazine] are 205 to 207 °C, 39% and 9.6 µM.
Compound `Nc1nnc(-c2cccc(OC(F)(F)C(F)F)c2)c(N)n1` [CEN-108, 3,5-Diamino-6-[3-(1,1,2,2-tetrafluoroethoxy)phenyl]-1,2,4-triazine] came in with a melting point of 199 to 200 °C. Besides, in data set [1], the inhibition at 125 µM was 81%. The same compound came in with an IC50 in data set [2] of 813 µM.
In turn, `Nc1nnc(-c2c(Cl)cccc2Cl)c(N)n1` [CEN-104, 3,5-Diamino-6-(2,6-dichlorophenyl)-1,2,4-triazine] displayed a melting point of 160 to 162 °C. Besides, the inhibition at 125 µM in data set [1] was 23%. For the same compound, the IC50 in data set [2] is greater than 1000 µM.
In turn, `Nc1nnc(-c2ccsc2)c(N)n1` [CEN-64, 3,5-Diamino-6-(3-thienyl)-1,2,4-triazine] registered a melting point of 199 to 201 °C. For the same compound, in data set [1], the inhibition at 125 µM was found to be 52%. The compound further gave an IC50 in data set [2] greater than 2000 µM.
In the case of `Cn1nc(-c2cccc(Oc3ccccc3)c2)c(N)nc1=N` [CEN-106, 5(3)-Amino-6-(3-phenoxyphenyl)-2,3(2,5)-dihydro-3(5)-imino-2-methyl-1,2,4-triazine], the melting point lay in the range of 160 to 161 °C. Besides, in data set [1], the inhibition at 125 µM came out at 43%. It took 26.9 µM to reach half-maximal inhibition in data set [2] (IC50).
Compound `Nc1nnc(-c2ccccc2OC(F)F)c(N)n1` [CEN-142] displayed a melting point of 154 to 155 °C. Moreover, the inhibition at 125 µM in data set [1] turned out to be 12%. The IC50 in data set [2] was greater than 2000 µM.
Compound `Nc1nnc(-c2cc3ccccc3s2)c(N)n1` [CEN-113, 3,5-Diamino-6-[2-(benzo[b]thiophenyl)]-1,2,4-triazine] showed a melting point of 344 to 345 °C. For the same compound, in data set [1], the inhibition at 125 µM came out at 65%. In addition, the IC50 in data set [2] stood at 2000 µM.
`Nc1nnc(-c2c3ccccc3cc3ccccc23)c(N)n1` [CEN-118, 6-(9-Anthracenyl)-3,5-diamino-1,2,4-triazine]: the melting point lay within 350 to 352 °C. Besides, the inhibition at 125 µM in data set [1] is -7%. The compound also yielded an IC50 in data set [2] of 1150 µM.
On the same counts, the results for `Nc1nnc(-c2ccc(Cl)s2)c(N)n1` [CEN-138, 3,5-Diamino-6-[2-(5-chlorothienyl)]-1,2,4-triazine] are 312 to 314 °C, 67% and greater than 2000 µM.
Compound `CCCCc1ccc(-c2nnc(N)nc2N)cc1` [CEN-183, 3,5-Diamino-6-(4-n-butylphenyl)-1,2,4-triazine] yielded a melting point of 184 to 186 °C. Also, the inhibition at 125 µM in data set [1] was found to be 106%. Further, the IC50 in data set [2] was 39 µM.
Take `Nc1cnc(-c2ccc3ccccc3c2)c(N)n1` [CEN-88, 2,6-Diamino-3-(2-naphthyl)pyrazine]: the melting point lay in the range of 163 to 165 °C. For the same compound, the inhibition at 125 µM in data set [1] was 82%. The compound also came in with an IC50 in data set [2] of 190 µM.
In the same order, the values of `Nc1nnc(-c2ccc(-c3ccccc3)cc2)c(N)n1` [CEN-82, 3,5-Diamino-6-(4-biphenyl)-1,2,4-triazine] are 282 to 284 °C, -8% and greater than 1000 µM.
The compound `Cn1nc(-c2cccs2)c(N)nc1=N` (as salt: methanesulfonate) [CEN-61, 5(3)-Amino-6-(2-thienyl)-2,3(2,5)-dihydro-3(5)-imino-2-methyl-1,2,4-triazine methanesulfonate] came in with a melting point of 201 to 202 °C.
`Cn1nc(-c2ccc3ccccc3c2)c(N)nc1=N` (as salt: methanesulfonate) [CEN-76, 5(3)-Amino-6-(2-naphthyl)-2,3(2,5)-dihydro-3(5)-imino-2-methyl-1,2,4-triazine methanesulfonate] came in with a melting point of 243 to 244 °C.
`CCn1nc(-c2ccc3ccccc3c2)c(N)nc1=N` (as salt: methanesulfonate) [CEN-75, 5(3)-Amino-6-(2-naphthyl)-2,3(2,5)-dihydro-3(5)-imino-2-ethyl-1,2,4-triazine methanesulfonate]: the melting point lay in the range of 175 to 177 °C.
For `Cn1nc(-c2sc(Cl)c(Cl)c2Cl)c(N)nc1=N` (as salt: methanesulfonate) [CEN-194, 5(3)-Amino-6-{2-(3,4,5-trichloro)thienyl}-2,3(2,5)-dihydro-3(5)-imino-2-methyl-1,2,4-triazine methanesulfonate], the melting point was 192 to 194 °C.
The compound `CCn1nc(-c2cc(OC)c(OC)c(OC)c2)c(N)nc1=N` (as salt: methanesulfonate) [CEN-119, 5(3)-Amino-6-(3,4,5-trimethoxyphenyl)-2,3(2,5)-dihydro-3(5)-imino-2-ethyl-1,2,4-triazine methanesulfonate] displayed a melting point of 305 to 306 °C.
On the same count and under the same terms, with `Nc1nnc(-c2ccccc2OC(F)(F)F)c(N)n1` [CEN-56, 3,5-Diamino-6-(2-trifluoromethoxyphenyl)-1,2,4-triazine] the figure was 148 to 150 °C.
The same measure, in the same setting: with `CCn1nc(-c2cccs2)c(N)nc1=N` (as salt: methanesulfonate) [CEN-62, 5(3)-Amino-6-(2-thienyl)-2,3(2,5)-dihydro-3(5)-imino-2-ethyl-1,2,4-triazine methanesulfonate] the figure was 194 to 196 °C; with `Cn1nc(-c2ccc(Oc3ccccc3)cc2)c(N)nc1=N` (as salt: methanesulfonate) [CEN-102, 5(3)-Amino-6-(4-phenoxyphenyl)-2,3(2,5)-dihydro-3(5)-imino-2-methyl-1,2,4-triazine methanesulfonate], 174 to 176 °C.
Regarding `Cn1nc(-c2cc(C(F)(F)F)cc(C(F)(F)F)c2)c(N)nc1=N` (as salt: methanesulfonate) [CEN-99, 5(3)-Amino-6-[3,5-(bis-trifluoromethyl)phenyl]-2,3(2,5)-dihydro-3(5)-imino-2-methyl-1,2,4-triazine methanesulfonate], the melting point was in the range of 179 to 181 °C.

Source of the values: patent publication US8691818B2, “Cyclic triazo and diazo sodium channel blockers” (University Of Greenwich, priority 2008, dated 2014).
